PMC10877564, “Activity of Gut-Derived Nisin-like Lantibiotics against Human Gut Pathogens and Commensals” (ACS Chemical Biology, 2024)
No end group written: not given here.

Assays:
[1] = Liposome permeabilization assay, liposomes without lipid II; format: biochemical; conditions: 375 nM lantibiotic; DOPC, 50 µM phospholipid; pyranine fluorescence, 30 min; three replicates; Figure S7
Experimental: (§1) To further investigate the mechanisms of action of these nisin-like lantibiotics, we performed liposome permeabilization assays using liposomes with or without lipid II (Figure S7).
(§2) Liposome Permeabilization Assay
(§3) To prepare pyranine encapsulated liposomes, DOPC (25 mg/mL in CHCl3, purchased from Avanti) was deposited into a vial and mixed with lipid II (dissolved in 2:1 CHCl3: MeOH, prepared chemoenzymatically).6 The solvent was removed using a stream of N2 leaving a thin film. Residual solvent was removed by storing it overnight in a vacuum desiccator. The film was rehydrated in buffer (5 mM Tricine, 5 mM MES, 5 mM NaCl, 1 mM pyranine pH = 6.0) and suspended with vortexing. The suspension was subjected to freeze-thaw three times before extrusion through a […] polycarbonate filter (21 passes). Excess pyranine was removed by passing the liposome solution through a Sephadex G-50 column previously equilibrated with buffer (5 mM Tricine, 5 mM MES, 5 mM NaCl, pH = 6.0). The eluted liposome solution containing the highest concentration of encapsulated pyranine (as determined visually with a UV lamp) was immediately placed on ice. Phospholipid concentration was determined by NMR as described previously.7 To measure liposome permeabilization, to a 96 well black polystyrene plate was added buffer (5 mM Tricine, 5 mM MES, 5 mM NaCl, pH = 8.0; 97 µL) and liposome solution (3 µL; 50 µM phospholipid concentration during assay). The wells were allowed to equilibrate for 8 min at room temperature then antibiotic was added. The antibiotic concentration in each well was 375 nM.
(§4) Pyranine fluorescence was monitored for 30 min then Triton X-100 was added to a final concentration of 0.1% and pyranine fluorescence was monitored for an additional 5 min. The pyranine fluorescence signal was max-min normalized. […]
(§5) Fig. S7 Liposome permeabilization assays of nisin-like lantibiotics. (A) Scheme of liposome […]
(§6) low fluorescence. Fluorescence increases upon liposome permeabilization and pH increase . (B) Fraction of liposomes permeabilized by lantibiotics (375 nM). Liposomes were composed of DOPC with or without 0.1 mol% lipid II. Error bars represent the standard of deviation of three […]
(§7) (1 picture or pasted object on this page, not shown here)

[2] = system: panel of Gram-positive human pathogens (VRE, MRSA, MRSE, L. monocytogenes, C. difficile); assay: MIC assay against the panel of Gram-positive human pathogens; format: cell-based; conditions: pathogen panel, Figure 3A-E; anaerobic
Excerpt: Next, we set out to test the antimicrobial activities of these purified lantibiotics against a panel of Gram-positive bacteria that are representatives of some of the most prevalent human pathogens: VRE, Methicillin-resistant S. aureus USA300 (MRSA), Methicillin-resistant Staphylococcus epidermidis SK135 (MRSE), Listeria monocytogenes 10403S, and Clostridioides difficile VPI10463. We examined the growth of bacteria in a 96-well plate under a concentration gradient of lantibiotics under anaerobic conditions (Figure S2B).
(§8) Elution Buffer (4 M guanidine hydrochloride, 20 mM Tris HCl, pH 7.5 at 25 °C, 100 mM NaCl, 1 M imidazole). Peptides eluted from the Ni resin were concentrated and desalted using 3 kDa Amicon filters (Millipore). For leader peptide removal, the peptide (1:20 trypsin to peptide) was incubated with the trypsin protease in 50 mM Tris-HCl, pH 8 overnight at 37 °C. Lastly, the core peptides were further purified with HPLC using an Agilent 1200 instrument (Agilent) as specified in general methods. About 1.5 mg recombinant peptide was obtained after HPLC purification per […]
Purification of blauticin from Blautia producta SCSK
Stationary anaerobic culture of BPSCSK was inoculated 1:100 to 1 L BHIS. Culture was incubated on a heating plate at 37 °C with 220 rpm stirring for 2 days in an anaerobic chamber. Bacteria were pelleted with 15,000 x g centrifugation for 15 min. The supernatant was acidified with acetic acid to pH 5.5 and filtered through a 0.22 um filter. Filtered supernatant was loaded onto a HiTrap SP HP column using an AKTA Pure FPLC, which was eluted sequentially with 3 CV of distilled water, 200 mM NaCl, 400 mM NaCl, 600 mM NaCl, 800 mM NaCl, and 1 M NaCl. The 800 mM NaCl eluate was concentrated with a 3 kDa Amicon filter, followed by dialyzation with DPBS using a 3 kDa Amicon filter. Purification of blauticin was confirmed by SDS-PAGE, VRE inhibition in vitro assay, and MALDI-TOF MS. […]
(§9) For broth cultures, isolates were grown in pre-reduced BHI supplemented with 5 g/L yeast extract (Difco, BD) and 0.1% L-cysteine under anaerobic condition.
(§10) Minimal Inhibition Concentration (MIC) assay
(§11) All MIC assays were performed under anaerobic condition. Stationary bacterial culture in BHIS (BHI supplemented with 5 g/L yeast extract and 0.1% L-cysteine) were inoculated 1:100 to wells containing 200 µL BHIS in U-bottom 96-well plates. Lantibiotics were dissolved in DPBS, and concentrations were determined by BCA assay (Pierce) according to the manufacturer’s protocol.
Lantibiotic stock solutions were added to wells to reach desired final concentration, with 3-fold serial dilution across rows to create concentration gradients. Bacteria-inoculated wells without lantibiotics served as control. […]

[3] = system: Coprococcus eutactus MSK.18.32; assay: MIC assay, anaerobic broth dilution; format: cell-based; conditions: SAR study blauticin versus nisin O, Figure 4
Excerpt: (§12) Antibiotic treatment may result in collateral damage to commensal bacteria in the human microbiome, leading to dysbiosis and susceptibility to various diseases.[44] How lantibiotics impact Gram-positive commensals from the human gut has remained unclear. Therefore, we performed antimicrobial activity tests of these lantibiotics against selected Gram-positive human gut commensals, most of which belong to the Lachnospiraceae family, one of the most abundant bacterial families in the human gut.[27] In general, human gut commensals were more susceptible to the set of investigated lantibiotics compared to pathogens (Figure 3).
as §8
(§13) All MIC assays were performed under anaerobic condition. […] Lantibiotics were dissolved in DPBS, and concentrations were determined by BCA assay (Pierce) according to the manufacturer’s protocol. […]

[4] = Liposome permeabilization assay, liposomes with lipid II; format: biochemical; conditions: 375 nM lantibiotic; DOPC with 0.1 mol% lipid II, 50 µM phospholipid; pyranine fluorescence, 30 min, room temperature; three replicates; Figure S7B
Experimental: as §1, §2, §3, §4, §5, §6, §7

[5] = system: C. comes MSK.11.23; assay: MIC assay, anaerobic broth dilution; format: cell-based, Coprococcus comes; conditions: Figure 3; anaerobic MIC assay
Excerpt: as §12, with “3). […]” for “3).”
Isolation of human gut commensal bacteria
Isolation and growth of commensal bacteria was done as previously reported.5 Briefly, fresh donor fecal samples were transferred into an anaerobic chamber (Coy Labs) within 1 h of collection. The anaerobic chamber was maintained using a gas mix consisting of 5% hydrogen, 5% carbon dioxide and 90% nitrogen, and hydrogen was maintained at ~3.0% using an anaerobic gas infuser. Fecal samples were resuspended in pre-reduced PBS and plated on Columbia blood agar or brain-heart infusion (BHI – Difco, BD) agar plates in three serial 10-fold dilutions and incubated at 37 °C for 48 – 96 h. Isolated colonies were re-streaked for purity onto Columbia blood agar and frozen in pre-reduced 10% glycerol in PBS.
as §9, §10, §11
Lantibiotic stock solutions were added to wells to reach desired final concentration, with 3-fold serial dilution across rows to create concentration gradients. Bacteria-inoculated wells without lantibiotics served as control. Plates were incubated at 37 °C for 48 h before being taken out of the anaerobic chamber for centrifugation. Plates were imaged with an iBright 1500 imager […]
pellets than those without lantibiotics were identified as MIC.

[6] = system: selected Gram-positive human gut commensals; assay: MIC assay against the panel of Gram-positive human gut commensals; format: cell-based; conditions: commensal panel, Figure 3F-M; anaerobic
Excerpt: as §12, §8, §13

| Substance | permeabilization of liposomes without lipid II compared to liposomes with lipid II (in words) [1] | inhibitory activity against pathogens based on MIC (ranking in words) [2] | inhibition (MIC) of C. eutactus, comparison in words [3] | permeabilization of lipid II-containing liposomes (in words) [4] | sensitivity of C. comes MSK.11.23 to the lantibiotic (in words) [5] | antimicrobial activity against human gut commensals (ranking in words) [6] |
| --- | --- | --- | --- | --- | --- | --- |
| MAKFDDFDLDVTKTAAGEGGVEPRITSKSLCTPGCVTGILMTCPVQTATCGCQITGK (also: bicyclic or more (positions not given here)) [blauticin, class I lantibiotic of Blautia producta SCSK, heterologously produced in E. coli in mixed dehydration states] | decreased permeabilization activities | intermediate activities | lower MIC than nisin O | strongly induced permeabilization | – | – |
| MAKFDDFDLDVTKTAAQGGIEPKYKSKSVCTPGCPTGILMTCPLKTATCGCHITGK (also: bicyclic or more (positions not given here)) [Lan-Df, novel nisin-like class I lantibiotic from Dorea formicigenerans, close homologue of nisin O] | decreased permeabilization activities | strongest inhibitory activities | – | strongly induced permeabilization | relatively resistant | generally more effective in growth inhibition |
| nisin O | decreased permeabilization activities | nisin A and Lan-Df had the strongest inhibitory activities against pathogens based on their MIC, followed by nisin O | – | strongly induced permeabilization | relatively resistant | – |
